In PMC12785583, “Coconut Milk-Derived Bioactive Peptides as Multifunctional Agents Against Hyperglycemia, Oxidative Stress, and Glycation: An Integrated Experimental and Computational Study” (International Journal of Molecular Sciences, 2025):

Columns and labels:
α-glucosidase = molecular target: α-glucosidase; design: method as in PMID 31139399; conditions: soy protein-derived peptides; cited from earlier work
[1] = cited from earlier work
[2] = within 24 h at 5 mg/mL; cited from earlier work
aldose reductase = molecular target: aldose reductase; design: method as in doi:10.3390/separations9090262; conditions: cited from earlier work
human erythrocytes = test: hemolytic assay; format: cell-based; conditions: human RBC, 37 °C, 24 h
Experimental: The hemolytic potential of the lead peptides was determined following an established erythrocyte hemolysis protocol. In brief, 15 mL of venous blood was drawn from a healthy individual, centrifuged at 3000 rpm for 10 min, and the plasma was discarded. The residual pellet (RBCs) was washed 3 times with PBS (pH 7.4, 0.1 M), and the resultant pellet was resuspended in PBS in a 1:10 ratio. Subsequently, 0.9 mL of the RBC suspension was incubated with 0.1 mL of peptides at various concentrations, a negative control (100 μL PBS + 900 μL RBC suspension), and a positive control (100 μL of 0.5% Triton-X-100 + 900 μL of RBC suspension), and incubated at 37 °C for 24 h. Post incubation, all tubes were centrifuged at 3000 rpm for 10 min. 0.1 mL of the supernatant was then transferred to 96-well plates, and the absorbance of the supernatant was read at 540 nm. […] The corrected values were calculated as Acontrol=Apos−Aneg and Asample=Atest−Aneg where Apos , Aneg and Atest are the absorbance values of the positive control, negative control, and peptide-treated sample (given concentration), respectively.

SWLRL
IC50 (α-glucosidase): 182.1 ± 0.74 µM

LPLPVLK [soy protein-derived peptide, literature]
IC50 (α-glucosidase): 237.4 ± 0.52 µM

LLLRW
superoxide anion radical scavenging EC50 [1]: 430 ± 12 mg/L

VVFPGCPE [Ginkgo biloba peptide, literature]
methylglyoxal scavenging [2]: up to 66.50%

WLRL
IC50 (α-glucosidase): 162.3 ± 0.74 µM

C[C@@H]1O[C@@H](OC[C@H]2O[C@@H](Oc3c(-c4ccc(O)c(O)c4)oc4cc(O)cc(O)c4c3=O)[C@H](O)[C@@H](O)[C@@H]2O)[C@H](O)[C@H](O)[C@H]1O [rutin]
aldose reductase IC50 (aldose reductase): 7.86 ± 0.33 mg/L

Triton-X-100 [reference compound]
Hemolytic Assay (HC50) (human erythrocytes): 105.25 ± 0.17 µg/mL
Hemolytic Assay (HC50) (value in bracket) (human erythrocytes): 162.67 µM
Hemolytic Assay (HC50) (human erythrocytes; listed as Triton X-100): 105.25 µg/mL
